Measured values published in ChEMBL document CHEMBL5579865, “Discovery of Broad-Spectrum Herpes Antiviral Oxazolidinone Amide Derivatives and Their Structure-Activity Relationships” (ACS Med Chem Lett, 2024).
Values after ≈ are worked out from the molar mass of the structure shown.

System: not listed separately
Experiment: Inhibition of HCMV DNA polymerase extracted from baculovirus infected Sf21 cells using Heterodimeric nucleic acid as substrate preincubated with enzyme for 30 mins followed by substrate and dATP addition measured after 60 mins by biotinylated UTP incorporation based AlphaLISA assay
Design: species or system Human betaherpesvirus 5
Conditions: not given; call rule not given here

SMILES | IC50
O=C(Cc1ccc(Cl)cc1)Nc1ccc(C(=O)c2ccccc2)cc1 | 18 µM
N#CC1(c2ccc(NC(=O)Cc3ccc(Cl)cc3)cc2)CC1 | 8.3 µM
O=C(Cc1ccc(Cl)cc1)Nc1ccc(C[C@H]2COC(=O)N2)cc1 | 0.25 µM
Cc1nccn1Cc1ccc(NC(=O)Cc2ccc(Cl)cc2)cc1 | 55 µM
O=C(Cc1ccc(Cl)cc1)Nc1cnc(C[C@H]2COC(=O)N2)cn1 | 6.5 µM
O=C(Cc1ccc(Cl)cc1Cl)Nc1ccc(C[C@H]2COC(=O)N2)cc1 | 0.13 µM
COc1cc(NC(=O)Cc2ccc(F)c(Cl)c2)ccc1C[C@H]1COC(=O)N1 | 0.357 µM
CC(=O)c1ccc(NC(=O)Cc2ccc(Cl)cc2)cc1 | 6.6 µM
CCOc1cc(NC(=O)Cc2ccc(Cl)cc2)ccc1C[C@H]1COC(=O)N1 | 0.045 µM
C[C@H](c1ccc(NC(=O)Cc2ccc(Cl)cc2)cc1)[C@H]1COC(=O)N1 | 16.7 µM
O=C1CC(c2ccc(NC(=O)Cc3ccc(Cl)cc3)cc2)CN1 (racemic) | 23.3 µM
O=C(Cc1ccc([N+](=O)[O-])cc1)Nc1ccc(C[C@H]2COC(=O)N2)cc1 | 0.176 µM
O=C(Cc1ccc(Cl)cc1)Nc1cc(Cl)c(C[C@H]2COC(=O)N2)cn1 | 6.31 µM
CS(=O)(=O)c1cccc(Cc2ccc(NC(=O)Cc3ccc(Cl)cc3)cc2)c1 | 13.3 µM
COc1cc(NC(=O)Cc2ccc(Cl)cc2)c(C)cc1C[C@H]1COC(=O)N1 | 10.8 µM
O=C(Cc1ccc(Cl)cc1)Nc1ccc(CC2COC(=O)N2)cn1 (racemic) | 4.1 µM
O=C(Cc1ccc(Cl)cc1)Nc1ccc(C[C@@H]2COC(=O)N2)cc1 | 2.81 µM
O=C(Cc1ccc(Cl)cc1)Nc1ccc(Cc2ccccc2)cc1 | > 133 µM

System: Human alphaherpesvirus 3
Experiment: Antiviral activity against VZV Street infected in human MeWo cells assessed as reduction in viral replication incubated for 72 hrs by qRT-PCR analysis
Type: functional, organism-based
Conditions: not given

SMILES | EC50
O=C(Cc1ccc(Cl)cc1)Nc1cnc(C[C@H]2COC(=O)N2)cn1 | Not Active
C[C@H](c1ccc(NC(=O)Cc2ccc(Cl)cc2)cc1)[C@H]1COC(=O)N1 | Not Active
O=C(Cc1ccc(Cl)cc1)Nc1cc(Cl)c(C[C@H]2COC(=O)N2)cn1 | Not Active
COc1cc(NC(=O)Cc2ccc(Cl)cc2)c(C)cc1C[C@H]1COC(=O)N1 | Not Active

Same assay, conditions: Human alphaherpesvirus 3, Street, MeWo, 72 h; read-out: EC50

SMILES | EC50
O=C(Cc1ccc(Cl)cc1)Nc1ccc(C[C@H]2COC(=O)N2)cc1 | 0.5 µM
O=C(Cc1ccc(Cl)cc1Cl)Nc1ccc(C[C@H]2COC(=O)N2)cc1 | 0.54 µM
COc1cc(NC(=O)Cc2ccc(F)c(Cl)c2)ccc1C[C@H]1COC(=O)N1 | 0.441 µM
CCOc1cc(NC(=O)Cc2ccc(Cl)cc2)ccc1C[C@H]1COC(=O)N1 | 0.085 µM
O=C(Cc1ccc([N+](=O)[O-])cc1)Nc1ccc(C[C@H]2COC(=O)N2)cc1 | 0.185 µM
O=C(Cc1ccc(Cl)cc1)Nc1ccc(CC2COC(=O)N2)cn1 (racemic) | 4.46 µM
O=C(Cc1ccc(Cl)cc1)Nc1ccc(C[C@@H]2COC(=O)N2)cc1 | 14.8 µM

System: not listed separately
Experiment: Solubility in PBS at pH 7
Type: physicochemical
Conditions: not given

SMILES | solubility
CCOc1cc(NC(=O)Cc2ccc(Cl)cc2)ccc1C[C@H]1COC(=O)N1 | 76 µM (≈ 29.6 µg/mL)

System: not listed separately
Experiment: Inhibition of VZV DNA polymerase extracted from baculovirus infected Sf21 cells using Heterodimeric nucleic acid as substrate preincubated with enzyme for 30 mins followed by substrate and dATP addition measured after 60 mins by biotinylated UTP incorporation based AlphaLISA assay
Design: species or system Human alphaherpesvirus 3
Conditions: not given

SMILES | IC50
O=C(Cc1ccc(Cl)cc1)Nc1ccc(C(=O)c2ccccc2)cc1 | 24.7 µM
N#CC1(c2ccc(NC(=O)Cc3ccc(Cl)cc3)cc2)CC1 | 2.7 µM
O=C(Cc1ccc(Cl)cc1)Nc1ccc(C[C@H]2COC(=O)N2)cc1 | 0.18 µM
Cc1nccn1Cc1ccc(NC(=O)Cc2ccc(Cl)cc2)cc1 | 34.8 µM
O=C(Cc1ccc(Cl)cc1)Nc1cnc(C[C@H]2COC(=O)N2)cn1 | 2.09 µM
O=C(Cc1ccc(Cl)cc1Cl)Nc1ccc(C[C@H]2COC(=O)N2)cc1 | 0.13 µM
COc1cc(NC(=O)Cc2ccc(F)c(Cl)c2)ccc1C[C@H]1COC(=O)N1 | 0.236 µM
CC(=O)c1ccc(NC(=O)Cc2ccc(Cl)cc2)cc1 | 4.8 µM
CCOc1cc(NC(=O)Cc2ccc(Cl)cc2)ccc1C[C@H]1COC(=O)N1 | 0.018 µM
C[C@H](c1ccc(NC(=O)Cc2ccc(Cl)cc2)cc1)[C@H]1COC(=O)N1 | 6.5 µM
O=C1CC(c2ccc(NC(=O)Cc3ccc(Cl)cc3)cc2)CN1 (racemic) | 8.2 µM
O=C(Cc1ccc([N+](=O)[O-])cc1)Nc1ccc(C[C@H]2COC(=O)N2)cc1 | 0.079 µM
O=C(Cc1ccc(Cl)cc1)Nc1cc(Cl)c(C[C@H]2COC(=O)N2)cn1 | 2.87 µM
CS(=O)(=O)c1cccc(Cc2ccc(NC(=O)Cc3ccc(Cl)cc3)cc2)c1 | 12.5 µM
COc1cc(NC(=O)Cc2ccc(Cl)cc2)c(C)cc1C[C@H]1COC(=O)N1 | 13.9 µM
O=C(Cc1ccc(Cl)cc1)Nc1ccc(CC2COC(=O)N2)cn1 (racemic) | 2.11 µM
O=C(Cc1ccc(Cl)cc1)Nc1ccc(C[C@@H]2COC(=O)N2)cc1 | 0.79 µM
O=C(Cc1ccc(Cl)cc1)Nc1ccc(Cc2ccccc2)cc1 | 67 µM

System: Human alphaherpesvirus 1
Experiment: Antiviral activity against HSV-1 F strain infected in African green monkey Vero cells assessed as reduction in viral replication incubated for 72 hrs by qRT-PCR analysis
Type: functional, organism-based
Conditions: not given

SMILES | EC50
C[C@H](c1ccc(NC(=O)Cc2ccc(Cl)cc2)cc1)[C@H]1COC(=O)N1 | Not Active
COc1cc(NC(=O)Cc2ccc(Cl)cc2)c(C)cc1C[C@H]1COC(=O)N1 | Not Active

Same assay, conditions: Human alphaherpesvirus 1, F strain, Vero, 72 h; read-out: EC50

SMILES | EC50
O=C(Cc1ccc(Cl)cc1)Nc1ccc(C[C@H]2COC(=O)N2)cc1 | 0.53 µM
O=C(Cc1ccc(Cl)cc1)Nc1cnc(C[C@H]2COC(=O)N2)cn1 | 25.7 µM
O=C(Cc1ccc(Cl)cc1Cl)Nc1ccc(C[C@H]2COC(=O)N2)cc1 | 0.81 µM
COc1cc(NC(=O)Cc2ccc(F)c(Cl)c2)ccc1C[C@H]1COC(=O)N1 | 2.15 µM
CCOc1cc(NC(=O)Cc2ccc(Cl)cc2)ccc1C[C@H]1COC(=O)N1 | 0.097 µM
O=C(Cc1ccc([N+](=O)[O-])cc1)Nc1ccc(C[C@H]2COC(=O)N2)cc1 | 0.177 µM
O=C(Cc1ccc(Cl)cc1)Nc1cc(Cl)c(C[C@H]2COC(=O)N2)cn1 | 33.7 µM
O=C(Cc1ccc(Cl)cc1)Nc1ccc(CC2COC(=O)N2)cn1 (racemic) | 13.3 µM
O=C(Cc1ccc(Cl)cc1)Nc1ccc(C[C@@H]2COC(=O)N2)cc1 | 7.3 µM

System: not listed separately
Experiment: Metabolic stability in human liver microsomes assessed as intrinsic clearance
Type: ADME, Microsome
Conditions: read-out: CLH

SMILES | CLint scaled
CCOc1cc(NC(=O)Cc2ccc(Cl)cc2)ccc1C[C@H]1COC(=O)N1 | 29 mL/min/kg

System: Human alphaherpesvirus 2
Experiment: Antiviral activity against HSV-2 G strain infected in African green monkey Vero cells assessed as reduction in viral replication incubated for 72 hrs by qRT-PCR analysis
Type: functional, organism-based
Conditions: not given

SMILES | EC50
C[C@H](c1ccc(NC(=O)Cc2ccc(Cl)cc2)cc1)[C@H]1COC(=O)N1 | Not Active
COc1cc(NC(=O)Cc2ccc(Cl)cc2)c(C)cc1C[C@H]1COC(=O)N1 | Not Active

Same assay, conditions: Human alphaherpesvirus 2, G strain, Vero, 72 h; read-out: EC50

SMILES | EC50
O=C(Cc1ccc(Cl)cc1)Nc1ccc(C[C@H]2COC(=O)N2)cc1 | 1.34 µM
O=C(Cc1ccc(Cl)cc1)Nc1cnc(C[C@H]2COC(=O)N2)cn1 | 44.8 µM
O=C(Cc1ccc(Cl)cc1Cl)Nc1ccc(C[C@H]2COC(=O)N2)cc1 | 0.91 µM
COc1cc(NC(=O)Cc2ccc(F)c(Cl)c2)ccc1C[C@H]1COC(=O)N1 | 5.25 µM
CCOc1cc(NC(=O)Cc2ccc(Cl)cc2)ccc1C[C@H]1COC(=O)N1 | 0.037 µM
O=C(Cc1ccc([N+](=O)[O-])cc1)Nc1ccc(C[C@H]2COC(=O)N2)cc1 | 0.473 µM
O=C(Cc1ccc(Cl)cc1)Nc1cc(Cl)c(C[C@H]2COC(=O)N2)cn1 | 64.5 µM
O=C(Cc1ccc(Cl)cc1)Nc1ccc(CC2COC(=O)N2)cn1 (racemic) | 11.4 µM
O=C(Cc1ccc(Cl)cc1)Nc1ccc(C[C@@H]2COC(=O)N2)cc1 | 8.69 µM

System: Human betaherpesvirus 5
Experiment: Antiviral activity against HCMV AD169 infected in human MRC5 cells assessed as reduction in viral replication incubated for 72 hrs in presence of 50 % serum by qRT-PCR analysis
Type: functional, organism-based
Conditions: not given

SMILES | EC50
C[C@H](c1ccc(NC(=O)Cc2ccc(Cl)cc2)cc1)[C@H]1COC(=O)N1 | Not Active
COc1cc(NC(=O)Cc2ccc(Cl)cc2)c(C)cc1C[C@H]1COC(=O)N1 | Not Active

Same assay, conditions: Human betaherpesvirus 5, AD169, MRC5, 72 h; read-out: EC50

SMILES | EC50
O=C(Cc1ccc(Cl)cc1)Nc1ccc(C[C@H]2COC(=O)N2)cc1 | 4.32 µM
O=C(Cc1ccc(Cl)cc1)Nc1cnc(C[C@H]2COC(=O)N2)cn1 | 94 µM
O=C(Cc1ccc(Cl)cc1Cl)Nc1ccc(C[C@H]2COC(=O)N2)cc1 | 1.34 µM
COc1cc(NC(=O)Cc2ccc(F)c(Cl)c2)ccc1C[C@H]1COC(=O)N1 | 7.07 µM
CCOc1cc(NC(=O)Cc2ccc(Cl)cc2)ccc1C[C@H]1COC(=O)N1 | 1.2 µM
O=C(Cc1ccc([N+](=O)[O-])cc1)Nc1ccc(C[C@H]2COC(=O)N2)cc1 | 0.72 µM
O=C(Cc1ccc(Cl)cc1)Nc1cc(Cl)c(C[C@H]2COC(=O)N2)cn1 | 99 µM
O=C(Cc1ccc(Cl)cc1)Nc1ccc(CC2COC(=O)N2)cn1 (racemic) | 61.7 µM
O=C(Cc1ccc(Cl)cc1)Nc1ccc(C[C@@H]2COC(=O)N2)cc1 | 55.6 µM
